What all share (format): cell-based
Experiment [1] concerns Gram-positive strains tested. The experiment in a line: MIC testing, statements on the Gram-positive strain panel. The note with it: all the test strains except S. aureus NRS-119 and E. faecium UW 3695; read-out: MIC (inhibitory concentration). The source says: (§1) MIC-testing was done immediately after preparation of the dilutions. All tests were done in duplicate and repeated once on a separate occasion.

Experiment [2] relates to S. aureus NRS-119 (MRSA, linezolid- and quinolone-resistant). The experiment in a line: MIC, broth microdilution (CLSI), CAMHB. The settings on record: Staphylococcus aureus. As for the experimental part: as §1
(§2) 1 mL of the bacterial suspension was transferred into a tube containing 10 mL CAMHB and was vortexed thoroughly. (S. pneumoniae 1 mL in 10 mL CAMHB+5% lysed horse blood). Columns 1-15 of the 96-well plate were inoculated with 5 μL of this suspension (1-15=antibacterial solution, 16=sterile medium without test item).
(§3) Turbidity was read visually with a mirror.

Experiment [3] deals with S. aureus ATCC 33593 (MRSA). The experiment in a line: MIC, broth microdilution (CLSI), CAMHB. The settings on record: Staphylococcus aureus. As for the experimental part:
as §1, §2, §3
(In general: Broth dilution looks for growth in wells or tubes with falling amounts of substance.)

The subject of experiment [4] is S. aureus Visa Mu 50 (MRSA, vancomycin intermediate susceptible). Put plainly: MIC, broth microdilution (CLSI), CAMHB. The settings on record: Staphylococcus aureus. The protocol: as §1, §2, §3
A further experiment deals with S. aureus ATCC 29213. The experiment in a line: MIC, broth microdilution (CLSI), CAMHB. The note with it: Staphylococcus aureus. The protocol: as §1, §2, §3
The next experiment relates to E. faecium DSMZ 2146. Put plainly: MIC, broth microdilution (CLSI), CAMHB. The note with it: Enterococcus faecium. The protocol: as §1, §2, §3
The test system of another experiment is S. pneumoniae ATCC 33400. Put plainly: MIC, broth microdilution (CLSI), CAMHB. The settings on record: Streptococcus pneumoniae. As for the experimental part: as §1, §2, §3
In experiment [5] the test system is S. pneumoniae BAY 19397 (penicillin-, macrolide-, quinolone-resistant). Put plainly: MIC, broth microdilution (CLSI), CAMHB. The note with it: Streptococcus pneumoniae. As for the experimental part: as §1, §2, §3
Experiment [6] has as its system E. faecium UW 3695 (linezolid and quinolone-resistant). The experiment in a line: MIC, broth microdilution (CLSI), CAMHB. The settings on record: Enterococcus faecium. As for the experimental part: as §1, §2, §3
A further experiment has as its system E. faecalis ATCC 29212. The experiment in a line: MIC, broth microdilution (CLSI), CAMHB. The settings on record: Enterococcus faecalis. As for the experimental part: as §1, §2, §3
The test system of the next experiment is E. faecalis V583 (VanB). The experiment in a line: MIC, broth microdilution (CLSI), CAMHB. The note with it: Enterococcus faecalis. As for the experimental part:
as §1, §2, §3

Experiment [7] deals with S. aureus DSM 11823, clone 16 (MSSA, quinolone-resistant). Put plainly: microbe, parasite or virus in culture. The note with it: Staphylococcus aureus. The protocol: as §1, §2, §3
Experiment [8] relates to Gram-negative test strains (Enterobacteriaceae, non-fermenters). Put plainly: MIC testing, statements on the Gram-negative strain panel. The settings on record: remainder / remaining / all other test strains, as worded for each agent; read-out: MIC.
Text: as §1

Experiment [9] has as its system K. pneumoniae NRZ-00002 (OXA-48). Put plainly: MIC, broth microdilution (CLSI), CAMHB. The settings on record: Klebsiella pneumoniae; monosubstance; Kp NRZ00002; read-out: MIC. As for the experimental part:
as §1, §2, §3

Experiment [10] relates to K. pneumoniae NRZ-00535 (VIM-1). The experiment in a line: MIC, broth microdilution (CLSI), CAMHB. The note with it: Klebsiella pneumoniae; monosubstance; Kp NRZ00535; read-out: MIC. The protocol: as §1, §2, §3
The test system of experiment [11] is E. cloacae NRZ-00239 (VIM-1). The experiment in a line: MIC, broth microdilution (CLSI), CAMHB. The settings on record: Enterobacter cloacae; monosubstance; Ecl NRZ00239; read-out: MIC. The protocol:
as §1, §2, §3

The subject of another experiment is E. cloacae ATCC 13047. The experiment in a line: MIC, broth microdilution (CLSI), CAMHB. The note with it: Enterobacter cloacae; monosubstance; Ecl ATCC13047; read-out: MIC. As for the experimental part:
as §1, §2, §3

A further experiment has as its system P. aeruginosa ATCC 10145. Put plainly: MIC, broth microdilution (CLSI), CAMHB. The note with it: Pseudomonas aeruginosa; monosubstance; Pa ATCC10145; read-out: MIC. As for the experimental part:
as §1, §2, §3

For experiment [12], the system named is E. coli NRZ-00401 (metallo β-lactamase VIM-1). The experiment in a line: MIC, broth microdilution (CLSI), CAMHB. The note with it: Escherichia coli; monosubstance; Ec NRZ00401; read-out: MIC. The protocol:
as §1, §2, §3

Experiment [13] deals with P. aeruginosa NRZ-00425 (VIM-1). Put plainly: MIC, broth microdilution (CLSI), CAMHB. The settings on record: Pseudomonas aeruginosa; monosubstance; Pa NRZ00425; read-out: MIC. The protocol:
as §1, §2, §3

Experiment [14] concerns K. pneumoniae NRZ-00103 (KPC-2). Put plainly: MIC, broth microdilution (CLSI), CAMHB. The settings on record: Klebsiella pneumoniae; monosubstance; Kp NRZ00103; read-out: MIC. As for the experimental part: as §1, §2, §3
The subject of the next experiment is K. pneumoniae ATCC 13883. Put plainly: MIC, broth microdilution (CLSI), CAMHB. The settings on record: Klebsiella pneumoniae; monosubstance; Kp ATCC13883; read-out: MIC. The protocol:
as §1, §2, §3

For a further experiment, the system named is P. mirabilis ATCC 9240. The experiment in a line: MIC, broth microdilution (CLSI), CAMHB. The settings on record: Proteus mirabilis; monosubstance; Pm ATCC9240; read-out: MIC. As for the experimental part: as §1, §2, §3
Experiment [15] has as its system E. coli NRZ-00302 (metallo β-lactamase NDM-1). Put plainly: MIC, broth microdilution (CLSI), CAMHB. The note with it: Escherichia coli; monosubstance; Ec NRZ00302; read-out: MIC. The protocol:
as §1, §2, §3

The test system of experiment [16] is P. mirabilis NRZ-00185 (AmpC, type CMY-2). The experiment in a line: MIC, broth microdilution (CLSI), CAMHB. The note with it: Proteus mirabilis; monosubstance; Pm NRZ00185; read-out: MIC. As for the experimental part: as §1, §2, §3
For the next experiment, the system named is E. coli ATCC 25922. The experiment in a line: MIC, broth microdilution (CLSI), CAMHB. The settings on record: Escherichia coli; monosubstance; Ec ATCC25922; read-out: MIC. As for the experimental part:
as §1, §2, §3

Experiment [17] deals with E. coli GNS-2601 (ESBL CTX-M-15). Put plainly: MIC, broth microdilution (CLSI), CAMHB. The note with it: Escherichia coli; monosubstance; Ec GNS2601; read-out: MIC. As for the experimental part:
as §1, §2, §3

Setting [18] is: monosubstance, Sa NRS119, read-out: MIC.
The mark [19] stands for this setting: monosubstance, Sa ATCC33593, read-out: MIC.
[20] abbreviates: monosubstance, Sa VisaMu50, read-out: MIC.
The mark [21] stands for this setting: monosubstance, Sa ATCC29213, read-out: MIC.
[22] abbreviates: monosubstance, Efc DSMZ2146, read-out: MIC.
Setting [23] is: monosubstance, Spn ATCC33400, read-out: MIC.
Where [24] appears, read: monosubstance, Spn 19397, read-out: MIC.
Setting [25] is: monosubstance, Efc UW3695, read-out: MIC.
[26] abbreviates: monosubstance, Ef ATCC29212, read-out: MIC.
Setting [27] is: monosubstance, Ef V583, read-out: MIC.

Converted amounts (≈) assume the structure as drawn. Where two headings read alike, the source gives them in different places.

As for `CC(=O)NC[C@H]1CN(c2ccc(N3CCOCC3)c(F)c2)C(=O)O1` [linezolid], the MIC was below 4 µg/mL in experiment [1]; 64 µg/mL (≈ 190 µM) in experiment [2] (setting [18]); 2 µg/mL (≈ 5.93 µM) in [3] (setting [19]); 4 µg/mL (≈ 11.9 µM) in experiment [4] (setting [20]); 2 µg/mL (≈ 5.93 µM) in the experiment with S. aureus ATCC 29213 (setting [21]); 4 µg/mL (≈ 11.9 µM) in the experiment with E. faecium DSMZ 2146 (setting [22]). Also, the MIC with S. pneumoniae ATCC 33400 (setting [23]) was 2 µg/mL (≈ 5.93 µM); in experiment [5] (setting [24]) it was 1 µg/mL (≈ 2.96 µM); in experiment [6] (setting [25]), 16 µg/mL (≈ 47.4 µM); with E. faecalis ATCC 29212 (setting [26]), 4 µg/mL (≈ 11.9 µM); in the experiment with E. faecalis V583 (VanB) (setting [27]), 2 µg/mL (≈ 5.93 µM); in experiment [7], 2 µg/mL (≈ 5.93 µM).

On to `COc1c(N2C[C@@H]3CCCN[C@@H]3C2)c(F)cc2c(=O)c(C(=O)O)cn(C3CC3)c12` [moxifloxacin], for which the MIC in experiment [2] (setting [18]) was 8 µg/mL (≈ 19.9 µM); in experiment [3] (setting [19]) it was 0.06 µg/mL (≈ 0.149 µM); in experiment [4] (setting [20]) it was 8 µg/mL (≈ 19.9 µM); in the experiment on S. aureus ATCC 29213 (setting [21]), 0.12 µg/mL (≈ 0.299 µM); in the experiment with E. faecium DSMZ 2146 (setting [22]), 0.5 µg/mL (≈ 1.25 µM); in the experiment with S. pneumoniae ATCC 33400 (setting [23]), 0.25 µg/mL (≈ 0.623 µM). The MIC in [5] (setting [24]) stood at 4 µg/mL (≈ 9.96 µM); in [6] (setting [25]) it was 64 µg/mL (≈ 159 µM); with E. faecalis ATCC 29212 (setting [26]) it was 0.5 µg/mL (≈ 1.25 µM); with E. faecalis V583 (VanB) (setting [27]) it was 0.25 µg/mL (≈ 0.623 µM).

On to `NC[C@H]1O[C@H](O[C@H]2[C@H](O)[C@@H](O[C@H]3O[C@H](CO)[C@@H](O)[C@H](N)[C@H]3O)[C@H](N)C[C@@H]2N)[C@H](N)C[C@@H]1O` [tobramycin], for which the MIC in experiment [8] is above 4 µg/mL; in [9], 16 µg/mL (≈ 34.2 µM); in experiment [10] it was 8 µg/mL (≈ 17.1 µM); in experiment [11], 4 µg/mL (≈ 8.56 µM); in the experiment on E. cloacae ATCC 13047, 0.25 µg/mL (≈ 0.535 µM); with P. aeruginosa ATCC 10145 it was 0.5 µg/mL (≈ 1.07 µM). Also, the MIC in experiment [12] is 4 µg/mL (≈ 8.56 µM); in experiment [13], above 128 µg/mL; in [14], 16 µg/mL (≈ 34.2 µM); with K. pneumoniae ATCC 13883 it was 0.125 µg/mL (≈ 0.267 µM); with P. mirabilis ATCC 9240, 0.5 µg/mL (≈ 1.07 µM); in experiment [15], 64 µg/mL (≈ 137 µM). For the same compound, the MIC came to 0.125 µg/mL (≈ 0.267 µM) in experiment [16], 1 µg/mL (≈ 2.14 µM) in the experiment on E. coli ATCC 25922 and 32 µg/mL (≈ 68.4 µM) in experiment [17].

For the compound `CN[C@H](CC(C)C)C(=O)N[C@H]1C(=O)N[C@@H](CC(N)=O)C(=O)N[C@H]2C(=O)N[C@H]3C(=O)N[C@H](C(=O)N[C@H](C(=O)O)c4cc(O)cc(O)c4-c4cc3ccc4O)[C@H](O)c3ccc(c(Cl)c3)Oc3cc2cc(c3O[C@@H]2O[C@H](CO)[C@@H](O)[C@H](O)[C@H]2O[C@H]2C[C@](C)(N)[C@H](O)[C@H](C)O2)Oc2ccc(cc2Cl)[C@H]1O` [vancomycin], the MIC was determined as 1 µg/mL (≈ 0.69 µM) in experiment [2]; 0.5 µg/mL (≈ 0.345 µM) in experiment [3]; 2 µg/mL (≈ 1.38 µM) in [4]; 0.25 µg/mL (≈ 0.173 µM) against S. aureus ATCC 29213 (ATCC29213); 0.25 µg/mL (≈ 0.173 µM) in the experiment with E. faecium DSMZ 2146 (DSMZ2146); 0.25 µg/mL (≈ 0.173 µM) against S. pneumoniae ATCC 33400 (ATCC33400). The MIC in [5] was 0.25 µg/mL (≈ 0.173 µM); in experiment [6] it was 0.25 µg/mL (≈ 0.173 µM); with E. faecalis ATCC 29212 (ATCC29212) it was 1 µg/mL (≈ 0.69 µM); against E. faecalis V583 (VanB), 32 µg/mL (≈ 22.1 µM); in experiment [7] it was 0.015 µg/mL (≈ 0.0104 µM).

Source of the values: US20160113921A1, “COMBINATION THERAPY COMPRISING OXAZOLIDINONE-QUINOLONES FOR USE IN TREATING BACTERIAL INFECTIONS” (MORPHOCHEM AKTIENGESELLSCHAFT FÜR KOMBINATORISCHE CHEMIE, priority 2013, published 2016).
